Experiments:
ORF2p core [1] = biological target: T1, ORF2p core (Homo sapiens, UniProt O00370); experiment: Homogeneous time-resolved fluorescence (HTRF) ORF2p RT assay; assay type: biochemical; settings: HTRF; NRTI NTPs
T1 construct: His6-MBP-3C-ORF2p (238-1061, ORFeus-Hs) in pET41; His6-MBP (3C protease site) (N, cleaved yes); made in house; host or cells: E. coli
Method: (§1) ORF2p core was preincubated with a template:primer containing a single site for the incorporation of a given nucleotide analogue. The primer/template sequence shown in the panel a illustrates the case of single incorporation of 3TC, with a single G for incorporation; the incoming template sequence for entecavir and carbovir has a single C, and for d4T a single A, each at position labeled “N”. Reactions were incubated for one minute at 37 °C with a 100 nM dNTP mixture and increasing concentrations of listed inhibitors. IC50 index, fold = IC50 (drug, µM) ÷ [dNTP] […] Fluorescein-labeled dNTPs (here, uracil-TP) are incorporated by ORF2p into a biotinylated primer, here shown against a poly(A) template. Detection is then achieved using FRET with a terbium cryptate labeled streptavidin, and the time-resolved technique and time-delayed emission from terbium cryptate reduces background from other fluorescent chemicals in the mix. In the presence of ORF2p RT inhibitors (RTIs), base incorporation is stopped and FRET signal is lost. […]
(§2) ORF2p reverse transcriptase activity assays […]
For HTRF RT assays157, 25 nM ORF2p core and 12. 5 nM t em plat e: primer was incubated at 25°C for 60 minutes
with 10 nM of fluorescein- 12- dUTP (Thermo), 1 µM each (dATP,dCTP,dGTP), and test compound in a 15 µL
reaction with buffer containing 50 mM Tris-HCl, 50 mM KCl, 10 mM MgCl2, 10 mM DTT, pH 8.1, and 1% final

ORF2p core [2] = biological target: T1, ORF2p core; experiment: Gel-based L1 RT assay, ORF2p core, inhibition by NRTI triphosphates; assay type: biochemical; settings: 100 nM dNTP mixture
Method: as §1, §2
Gel-based RT activity assays consisted of pr e-incubating RTs with annealed DNA/RNA, DNA/DNA, or RNA/RNA 5’- end- radiolabeled or 5’-end-Cy5- o r FAM-labeled template:primer duplex or hybrid duplex and, where indicated, inhibitor in the presence of 0.1- 1 μ M dNTP or NTP mixture, 0.25 mM EDTA, 50 mM NaCl, and 25 mM Tris (pH 8) for 10 min at 37°C. Labeled nucleic acids were purchased from Dharmacon or IDT. Unless otherwise indicated, 15 μL reactions were initiated by the addition of 1.3 mM MgCl2, incubated for 10 min at 37 °C, and then stopped by the addition of 15 μL of formamide/EDTA (25 mM) mixture and incubated at 95 °C for 10 min. 3 μL reaction samples were subjected to denaturing 8 M urea 20% PAGE to resolve products followed by signal quantification (ImageQuant 5.2, GE Healthcare Bio- Sciences) through phosphorimaging (Amersham Typhoon 5, Cytivia). Scanned gel images are […]
minor products; original images are provided in an Extended Data file. […]

IC50 (ORF2p core [1]): < 10 nM
IC50 index, fold = IC50 (drug, µM) ÷ [dNTP] (natural counterpart, 0.1 µM) (ORF2p core [2]): 4.1 fold
IC50 (ORF2p core [2]; NTP forms of NRTIs, one minute at 37 °C): 400 to 600 nM
Compound: Cc1cn([C@H]2C=C[C@@H](CO)O2)c(=O)[nH]c1=O [d4T, stavudine]

— paper PMC10830420, “Structures, functions and adaptations of the human LINE-1 ORF2 protein” (Nature, 2023)
